Laboratory results published in US20130296436A1, “AMIDINE COMPOUNDS AND USE THEREOF FOR PLANT DISEASE CONTROL” (SUMITOMO CHEMICAL COMPANY, LIMITED, priority 2010, published 2013).

Test system: Pyrenophora teres
Test: Test Example 8: barley Pyrenophora teres, foliar application before inoculation, 50 ppm
Type: in vivo
Conditions: barley (Nishinohoshi), 50 ppm foliar application, inoculated two days after, 3 days + 7 days

CCN(C)/C=N/c1cc(C)c(OCC(F)(F)C(F)(F)C(F)(F)C(F)(F)C(F)(F)F)cc1C [present compound 7]
lesion area on the treated plant relative to the area of lesions on an untreated plant: ≤ 30%
